Reference: ChEMBL document CHEMBL1201862, “PubChem BioAssay data set” (2004)
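Dose response: 5 concentrations. Exposure: 48 h. Format: 96-well plates. Endpoint: linear interpolation; highest concentration if not reached. Here, GI50 denotes the concentration required for 50% inhibition of growth.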 Active and inactive are the calls of the source. Cut-off read from the data, not from the text of the source: active = GI50 up to about 1.1 µM and inactive = higher.

Experiments:
Assay in all cases: inhibition of tumour cell growth, NCI panel, 48 h
OVCAR-3 = test system: OVCAR-3
NCI-H460 = test system: NCI-H460
UO-31 = test system: UO-31
NCI-H522 = test system: NCI-H522
MOLT-4 = test system: MOLT-4
A498 = test system: A498
HCT-116 = test system: HCT-116
CCRF-CEM = test system: CCRF-CEM
OVCAR-5 = test system: OVCAR-5
OVCAR-8 = test system: OVCAR-8
SN12C = test system: SN12C
SR = test system: SR
EKVX = test system: EKVX
Malme-3M = test system: Malme-3M
IGROV-1 = test system: IGROV-1
K562 = test system: K562
DU-145 = test system: DU-145
NCI/ADR-RES = test system: NCI/ADR-RES
MDA-MB-231 = test system: MDA-MB-231

Row | SMILES | GI50 (OVCAR-3) | GI50 (NCI-H460) | GI50 (UO-31) | GI50 (NCI-H522) | GI50 (MOLT-4) | GI50 (A498) | GI50 (HCT-116) | GI50 (CCRF-CEM) | GI50 (OVCAR-5) | GI50 (OVCAR-8) | GI50 (SN12C) | GI50 (SR) | GI50 (EKVX) | GI50 (Malme-3M) | GI50 (IGROV-1) | GI50 (K562) | GI50 (DU-145) | GI50 (NCI/ADR-RES) | GI50 (MDA-MB-231)
1 | NS(=O)(=O)c1ccc(NC2=CC(=O)C(=O)c3ccccc32)cc1 | > 100 µM (inactive) | > 100 µM (inactive) | > 100 µM (inactive) | > 100 µM (inactive) | 72.1 µM (inactive) | > 100 µM (inactive) | 76.4 µM (inactive) | > 100 µM (inactive) | > 100 µM (inactive) | > 100 µM (inactive) | > 100 µM (inactive) | > 100 µM (inactive) | > 100 µM (inactive) | > 100 µM (inactive) | > 100 µM (inactive) | > 100 µM (inactive) |  |  | 
2 | CN(C)/C=C/C(=O)c1cccc(C(=O)/C=C/N(C)C)n1 | > 100 µM (inactive) | > 100 µM (inactive) | > 100 µM (inactive) | > 100 µM (inactive) | > 100 µM (inactive) | > 100 µM (inactive) | > 100 µM (inactive) | > 100 µM (inactive) | > 100 µM (inactive) | 80.4 µM (inactive) | > 100 µM (inactive) | > 100 µM (inactive) | > 100 µM (inactive) | > 100 µM (inactive) | > 100 µM (inactive) | > 100 µM (inactive) |  |  | 
3 | O=C1C2=Cc3ccccc3OC2(O)Oc2cc3ccccc3cc21 (centres undefined) | 57.8 µM (inactive) | > 100 µM (inactive) |  |  | > 100 µM (inactive) | > 100 µM (inactive) | > 100 µM (inactive) | > 100 µM (inactive) | > 100 µM (inactive) | > 100 µM (inactive) | > 100 µM (inactive) | > 100 µM (inactive) | > 100 µM (inactive) | > 100 µM (inactive) | 28.7 µM (inactive) | > 100 µM (inactive) | > 100 µM (inactive) | > 100 µM (inactive) | > 100 µM (inactive)
4 | COC(=O)N1C[C@@]2(C=CC3(CC2)OCCO3)c2ccccc21 | > 100 µM (inactive) | 90.4 µM (inactive) | > 100 µM (inactive) |  | 58.3 µM (inactive) | > 100 µM (inactive) | > 100 µM (inactive) | 45.2 µM (inactive) | > 100 µM (inactive) | 39.5 µM (inactive) | > 100 µM (inactive) | 49.7 µM (inactive) | 62.1 µM (inactive) |  | 49.1 µM (inactive) | 48 µM (inactive) | > 100 µM (inactive) | 28.6 µM (inactive) | > 100 µM (inactive)
5 | CCOC(=O)CC(C)C1(C(=O)OCC)CCCCC1=O (centres undefined) | > 100 µM (inactive) | > 100 µM (inactive) | > 100 µM (inactive) | > 100 µM (inactive) | > 100 µM (inactive) | > 100 µM (inactive) | 46 µM (inactive) | > 100 µM (inactive) | > 100 µM (inactive) | > 100 µM (inactive) | > 100 µM (inactive) | 25.6 µM (inactive) | > 100 µM (inactive) | > 100 µM (inactive) | > 100 µM (inactive) | > 100 µM (inactive) |  |  | 
6 | CCOC(=O)C(=O)N/N=C1\C(=O)Nc2ccccc21 |  | > 100 µM (inactive) | > 100 µM (inactive) | > 100 µM (inactive) | > 100 µM (inactive) | > 100 µM (inactive) | > 100 µM (inactive) | > 100 µM (inactive) | > 100 µM (inactive) | > 100 µM (inactive) | > 100 µM (inactive) | > 100 µM (inactive) | > 100 µM (inactive) | > 100 µM (inactive) | > 100 µM (inactive) | > 100 µM (inactive) | > 100 µM (inactive) | > 100 µM (inactive) | > 100 µM (inactive)
7 | CCCOP(=S)(N1CC1)N1CC1 | > 100 µM (inactive) | > 100 µM (inactive) | > 100 µM (inactive) | > 100 µM (inactive) | > 100 µM (inactive) | > 100 µM (inactive) | > 100 µM (inactive) | > 100 µM (inactive) | > 100 µM (inactive) | > 100 µM (inactive) | > 100 µM (inactive) | > 100 µM (inactive) | > 100 µM (inactive) | > 100 µM (inactive) | > 100 µM (inactive) | > 100 µM (inactive) |  |  | 
8 | Cc1cc2c(cc1C)[n+]([O-])c(C(=O)C/C(=N/NC(=S)NN)C(=O)Nc1cccc(C(F)(F)F)c1)c[n+]2[O-] | > 100 µM (inactive) | > 100 µM (inactive) | > 100 µM (inactive) | > 100 µM (inactive) | > 100 µM (inactive) | > 100 µM (inactive) | > 100 µM (inactive) | 56.9 µM (inactive) | > 100 µM (inactive) | > 100 µM (inactive) | > 100 µM (inactive) | 65.6 µM (inactive) | > 100 µM (inactive) | > 100 µM (inactive) | > 100 µM (inactive) | > 100 µM (inactive) |  |  | 
9 | COc1ccc(Cc2c3cc(O)c([O-])cc3cc[n+]2C)cc1 | 27.7 µM (inactive) | 5.68 µM (inactive) | 9.95 µM (inactive) | 23.3 µM (inactive) | 10.2 µM (inactive) | 42 µM (inactive) | 19.4 µM (inactive) | 4.95 µM (inactive) | 33.7 µM (inactive) | 29 µM (inactive) | 21 µM (inactive) | 5.86 µM (inactive) | > 73.6 µM (inactive) | 30.7 µM (inactive) | 30.3 µM (inactive) | 6.61 µM (inactive) |  |  | 
10 | Cc1nc2cc3ccccc3cc2[nH]c1=O | 68.1 µM (inactive) | 61.1 µM (inactive) | 54.8 µM (inactive) | 59.4 µM (inactive) | 44 µM (inactive) | 19.8 µM (inactive) | > 100 µM (inactive) | 51.2 µM (inactive) | > 100 µM (inactive) | 70.5 µM (inactive) | > 100 µM (inactive) | 78.3 µM (inactive) | 0.805 µM (active) | > 100 µM (inactive) | 47.9 µM (inactive) | 38.8 µM (inactive) | > 100 µM (inactive) | 77.3 µM (inactive) | 72.3 µM (inactive)
11 | COc1cc(S(=O)(=O)Nc2nc(-c3ccc(N4C(=O)/C(=C/c5ccccc5[N+](=O)[O-])N=C4c4ccccc4)cc3)cs2)ccc1Cl | 29.5 µM (inactive) | > 100 µM (inactive) | > 100 µM (inactive) | 48.3 µM (inactive) | 37.7 µM (inactive) | > 100 µM (inactive) | 74 µM (inactive) | > 100 µM (inactive) | > 100 µM (inactive) | > 100 µM (inactive) | > 100 µM (inactive) | 34.3 µM (inactive) |  | > 100 µM (inactive) | 41.6 µM (inactive) | 61.5 µM (inactive) | > 100 µM (inactive) | > 100 µM (inactive) | 19.9 µM (inactive)
12 | O=S(=O)(O)CCS [MESNA] | > 100 µM (inactive) | > 100 µM (inactive) | > 100 µM (inactive) | > 100 µM (inactive) | > 100 µM (inactive) | > 100 µM (inactive) | > 100 µM (inactive) | > 100 µM (inactive) | > 100 µM (inactive) | > 100 µM (inactive) | > 100 µM (inactive) | > 100 µM (inactive) | > 100 µM (inactive) | > 100 µM (inactive) | > 100 µM (inactive) | > 100 µM (inactive) | > 100 µM (inactive) | > 100 µM (inactive) | > 100 µM (inactive)
